The results in this text go back to patent US20090012179A1, “Use of Tyrphostins to Stimulate Neurite Outgrowth” (priority 2004, published 2009).

Each structure is given as a SMILES string. Entries after “also recorded” stand apart in the source; their conditions may differ.

Data set [1] has as its system ERK. Put plainly: ERK activation in NS20Y neuroblastoma cells, immunoblotting for dually phosphorylated ERK. Type of data set: cell-based, mouse. Conditions: dually phosphorylated ERK by immunoblotting.
The test system of data set [2] is ERK. Put plainly: ERK activation in primary rat neostriatal neuron cultures. The data set is classed as cell-based. The procedure: Primary Neuronal Cultures: The substantia nigra or striatal region is dissected from 4 day-old Sprague-Dawley rats and incubated in minimum essential medium (MEM) containing 20 U/ml papain for 2 hours at 37° C. The tissue is then triturated using fire-polished Pasteur pipettes in MEM supplemented with 10% fetal bovine serum, 0.45% glucose, […] insulin, 0.5 mM glutamine, 100 U/ml penicillin, and 100 μg/ml streptomycin. Cells are plated on 18 mm diameter poly-D-lysine-coated glass coverslips (Fisher 12-545-84 18cir-1D) at a density of 75,000 cells per coverslip for immunofluorescence imaging or in 12-well or 6-well tissue culture plates for immunoblotting studies. […]
Cell stimulation, immunoblotting, and immunoprecipitation: Cells or neurons are grown in 6-well or 12-well plates to 80-90% confluence. […] After centrifugation (14,000×g at 4° C. for 15 minutes), the supernatant is collected and the protein concentration is measured and adjusted using RIPA^+ buffer. […] The proteins are transferred to PVDF membrane (Millipore), detected with the primary antibodies (including anti-active ERK; anti-p-Tyr clone 4G10, Upstate; anti-TH; anti-DAT, sigma, anti-β-tubulin, etc.) and visualized with the SuperSignal™ West Pico chemiluminescent kit (Pierce Biotechnology, Rockford, Ill.). The intensity of bands is quantified using ImageQuant™ 5.2 (Amersham). […]

The test system of data set [3] is primary dopaminergic neuron cultures. Put plainly: Neuroprotection against MPP+ in primary dopaminergic neuron cultures. Type of data set: cell-based, rat. To be noted: MPP+ 25 μM; A9 added before or after MPP+; TH staining. Here is the method: Primary cultures of rat embryonic SNc neuron cultures were grown on treated 12-well plates (for dopamine uptake) or coverslips (for neuroprotection) for 10 days as described in the Examples section. In FIG. 6A, the neurons were treated with different concentrations of A9 for 6 days before dopamine uptake was measured. Data=mean±SD (n=3). In FIG. […] Half of the medium was changed with fresh A9 on day 14. The neurons were fixed on day 16 and stained for tyrosine hydroxylase (TH, green) and total-ERK (red). Images were captured with fluorescence microscopy at magnification×100.
The dopaminergic neurons that have been cultured on poly-D-lysine treated coverslips or 12-well cell culture plates for 10 days are treated with vehicle or A9 at 1 nM, 10 nM, 100 nM, or 1 μM for 7 days. […] Half of the medium is changed with fresh medium containing A9 at day 4. To test the involvement of ERK and PI3K, inhibitors (including PD98059, SL327, wortmannin, and LY294002) are added with A9. […] The amount of HSV used and the best time to do functional assays is determined. To count the TH-positive neurons, the neurons on coverslips are fixed, stained for both tyrosine hydroxylase (TH) and total-ERK (control) at the end of A9 treatment and imaged with a conventional or confocal fluorescence microscope. […]

In data set [4] the test system is ERK. The data set can be described thus: ERK activation in SH-SY5Y cells. The data set is classed as cell-based, human. Here is the method:
SH-SY5Y cells are treated with A9, NGF ([…]), or EGF (10 ng/ml) for different durations, including 5, 15, 30, 60, and 120 minutes, to generate time-response curves for A9, NGF, and EGF. The level of ERK activation is measured by immunoblotting for the active (phosphorylated) ERK. The time-point with the maximum ERK response determined above is chosen for immunoprecipitation studies to assess the activation of PI3K, PDK1, and PKB/Akt. Cells are lysed with RIPA^+ buffer and precipitated with polyclonal antibodies for PI3K, PDK1, and PKB/Akt, and then the presence of p-Tyr in the precipitates will be determined by immunoblotting with the specific p-Tyr monoclonal antibody 4G10 (Upstate).

Another data set has as its system SJL mice with EAE. The data set can be described thus: Axonal damage in SJL mice with EAE, SMI312/SMI32 immunohistochemistry of spinal cord. The data set is classed as in vivo, mouse. The procedure: A9 (or the vehicle control) was administered orally.
Following treatment, the thoracic spinal cords were fixed in 4% PFA, embodied in paraffin and sectioned for IHC.

Turning to `CC(C)(C)c1cc(C=C(C#N)C#N)cc(C(C)(C)C)c1O` [A9, tyrphostin A9], the ERK activation entry in the data set with ERK [1] is “robust activation of ERK; also recorded: stimulated ERK activation in NS20Y cells in a time (FIG. 2A) and dose (FIG. 2B)-dependent manner; also recorded: induced robust and sustained ERK activation”; with ERK [1] (listed as tyrphostin A9), “stimulated robust and sustained ERK activation in a time and dose-dependent manner”. Further, in the data set with ERK [2], the “A9-stimulated ERK activation” value is “also observed”. Moreover, the “Protective effect against neurotoxin MPP+” value in data set [3] is “robust protective effect; also recorded: neuroprotection against MPP^+”. The “ERK activation in SH-SY5Y, indicated by use of MEK inhibitor PD98059” value with ERK [4] is listed as “ERK is activated”. For the same compound, the “Damaged axons, SMI32 staining” value in the data set on SJL mice with EAE (SJL mice with EAE, 1 μg A9 orally) is given as “effectively reduced; also recorded: reduces the presence of damaged axons”. Besides, in the data set with SJL mice with EAE (SJL mice, EAE induced with PLP139-151, 1 μg A9 orally), the “Axonal damage in the spinal cord” value is “reduced the axonal damage”. Besides, the “Ability to cross the blood brain barrier” value with SJL mice with EAE (after oral administration, inferred from CNS effect in EAE mice) is on record as “has the ability to cross the blood brain barrier”.
